Test results as given in patent publication US20040034336A1, “Charged liposomes/micelles with encapsulted medical compounds” (priority 2002, published 2004).

Assay: Local delivery of drug in charged liposomes/micelles from a hydrogel-coated metal mesh catheter by iontophoresis
Details: iontophoresis 5 mA, 8 V, 10 minutes
Description: Liposome or micelles were prepared by mixing 3.0 mg of phosphatidylcholine, 3.0 mg of cholesterol and 0.3 mg of phosphatidylserine in a test tube. Chloroform (200 microliters) was added and the solution was evaporated to dryness in a test tube. 7-Amino Actinomycin D (500 mg) was dissolved in 8 mM CaCl2 for a final concentration of 0.5 mg/ml. The 7-Amino Actinomycin D solution was added to the lipid mixture in small aliquots with constant stirring. The hydrogel-coated metal mesh catheter was placed in the 7-amino Actinomycin D/liposome or micelle mixture and then used for drug delivery in the following manner: The hydrogel-coated metal mesh catheter was placed in the 7-Amino Actinomycin D/liposome or micelle mixture and then removed. In some cases, the hydrogel-coated mesh portion of the catheter was covered with a retractable sheath to prevent loss of the compound during the transport of the catheter from the arterial access site to the target site. When the catheter was positioned at the target site the sheath was retracted and the mesh was expanded against the arterial wall. Iontophoersis was performed by applying an electrical current to the mesh. […] In this example the iontophoresis parameters were 5 mA, and 8 V, applied for 10 minutes.

For `Cc1c2oc3c(C)c(N)cc(C(=O)N[C@@H]4C(=O)N[C@H](C(C)C)C(=O)N5CCC[C@H]5C(=O)N(C)CC(=O)N(C)[C@@H](C(C)C)C(=O)O[C@@H]4C)c3nc-2c(C(=O)N[C@@H]2C(=O)N[C@H](C(C)C)C(=O)N3CCC[C@H]3C(=O)N(C)CC(=O)N(C)[C@@H](C(C)C)C(=O)O[C@@H]2C)c(N)c1=O` [7-Amino Actinomycin D], the “distribution of the fluorescent compound in the vessel after local delivery” value (7-Amino Actinomycin D/liposome or micelle mixture (phosphatidylcholine, cholesterol, phosphatidylserine)) was “throughout the vessel wall and in the outer layer of the vessel” and the “localization in the cells of the vessel after local delivery” value (7-Amino Actinomycin D/liposome or micelle mixture) was “evidence of localization of the 7-Amino Actinomycin D in the nuclei of the cells”.
